Source: patent US8741951B2, “Non-steroidal compounds for androgen receptor modulation” (CNR—Consiglio Nazionale delle Ricerche, priority 2009, dated 2014)
“Also recorded” adds a separate entry of the source. Like-named read-outs stand apart in the source and are kept apart here.

Tests used:
[1] = test system: DU145 cell line; assay: SRB cytotoxicity, DU145; assay type: cell-based, human; conditions: DU145 (no AR), 144 h, up to 20 μM
Method: (§1) FIGS. 16-25: cytotoxic effect of compounds (R)-XXIII-2, (R)-XXIII-3, (R)-XXIII-4, (R)-XXIII-5, (R)-XXIII-6, (R)-XXIII-7, (R)-XXIII-8, (R)-XXIII-9, (R)-XXIII-10, (R)-XXIV-9 on PC-3 and DU-145 cell lines at different concentration (0.02, 0.2, 2, 20 μM) after 144 h exposure. On the x-axis is reported the concentration, while on the y-axis is reported the inhibition of the net growth (% net growth).
(§2) Sulforhodamine B (SRB) assay was used according to the method by Skehan et al. (JNCI, 1990). Briefly, cells were collected by trypsinization, counted and plated at a density of 5,000 cells/well in 96-well flat-bottomed microtiter plates (100 μl of cell suspension/well). In the chemosensitivity assay, experiments were run in octuplicate, and each experiment was repeated three times. The optical density (OD) of cells was determined at a wavelength of 490 nm by a colorimetric plate reader.
(§3) If ODtreated is above ODzero, treatment has induced a cytostatic effect, whereas if ODtreated is below ODzero, cell killing has occurred. The ODzero depicts the cell number at the moment of drug addition, the ODcontrol reflects the cell number in untreated wells and the ODtreated reflects the cell number in treated wells on the day of the assay.

[2] = test system: human hepatoblastoma cell line HepG2; assay: Cytotoxic activity on HepG2 (hepato-toxicity); assay type: cell-based; conditions: HepG2, up to highest concentration tested
Method: as §2, §3
FIG. 27-36 show the cytotoxic activity of the drugs on the human hepatoblastoma cell line HepG2. The authors evaluated in vitro the potential hepato-toxicity of some of the novel compounds on HepG2 cell line, a human hepatoblastoma cell line that retains the specialized function of normal hepatocytes [Knowles B B, Howe C C, Aden D P. Human hepatocellular carcinoma cell lines secretes the major plasma proteins and hepatitis B surface antigen. Science 1980, 209:497-499; Aden D P, Vogel A, Plortkin S, Damjanov I, Knowles B B. Controlled synthesis of HBS Ag in a differentiated human liver carcinoma-derived cell line. Nature, 1979, 282:615-616].

[3] = test system: PC-3 cell line; assay: SRB cytotoxicity, PC-3; assay type: cell-based, human; conditions: PC-3 (no AR), 144 h, up to 20 μM
Method: as §1, §2, §3

[4] = test system: LNCaP cells; assay: SRB in vitro chemosensitivity assay, LNCaP; assay type: cell-based
Method: (§4) The cell lines were maintained as a monolayer at 37° C. and subcultured weekly. Culture medium was composed of RPMI 1640 supplemented with 10% fetal calf serum and 1% glutamine (Mascia Brunelli s.p.a., Milan, Italy). Cells were used in the exponential growth phase in all the experiments.
(§5) Compounds were dissolved in acetone or DMSO (AITES) ([…]) and stored at −20° C. The cell culture containing acetone at the highest concentration was used as the control.
as §2, §3
(§6) FIGS. 2-11 show the cytotoxic activity of the derivative compounds of the invention on the LNCaP and LNCaP-AR cell lines. The authors examined the antitumour activity of the compounds for which the synthesis is described above, in the hormone-sensitive prostate cancer cell line LNCaP and in its derivative cell line LNCaP-AR, expressing high level of AR and with hormone refractory prostate cancer (HRPC) features. The novel compounds were tested at the increasing concentrations of […], 0.2, 2.0, and 20.0 μM. The highest dose used was chosen on the basis of the clinically achievable peak plasma concentration reported in the literature for bicalutamide (Cockshott I D. Clin Pharmacokinet. 2004; 43(13): 855-78). After 144-hr exposure time the cytotoxic effect of the molecules was calculated according to the method of Monks et al. (Monks A, Scudiero D, Skehan P, et al. Feasibility of a high-flux anticancer drug screen using a diverse panel of cultured human tumor cell lines. J Natl Cancer Inst. 1991; 83: 757-66.)

[5] = molecular target: T1, human androgen receptor (hAR) (Homo sapiens, UniProt P10275); assay: hAR transactivation assay (ARE-luc) in Cos-7 cells; assay type: cell-based; conditions: for inhibition of R1881-induced AR transcriptional activation (antagonistic activity), in words: compound 10 μM with 10 nM R1881; for agonistic activity on AR transcription, in words: compound alone, 10 nM to 1 μM or 10 μM
T1 construct: expressed in transfected cells; host or cells: Cos-7
T1 sequence (P10275 1-920): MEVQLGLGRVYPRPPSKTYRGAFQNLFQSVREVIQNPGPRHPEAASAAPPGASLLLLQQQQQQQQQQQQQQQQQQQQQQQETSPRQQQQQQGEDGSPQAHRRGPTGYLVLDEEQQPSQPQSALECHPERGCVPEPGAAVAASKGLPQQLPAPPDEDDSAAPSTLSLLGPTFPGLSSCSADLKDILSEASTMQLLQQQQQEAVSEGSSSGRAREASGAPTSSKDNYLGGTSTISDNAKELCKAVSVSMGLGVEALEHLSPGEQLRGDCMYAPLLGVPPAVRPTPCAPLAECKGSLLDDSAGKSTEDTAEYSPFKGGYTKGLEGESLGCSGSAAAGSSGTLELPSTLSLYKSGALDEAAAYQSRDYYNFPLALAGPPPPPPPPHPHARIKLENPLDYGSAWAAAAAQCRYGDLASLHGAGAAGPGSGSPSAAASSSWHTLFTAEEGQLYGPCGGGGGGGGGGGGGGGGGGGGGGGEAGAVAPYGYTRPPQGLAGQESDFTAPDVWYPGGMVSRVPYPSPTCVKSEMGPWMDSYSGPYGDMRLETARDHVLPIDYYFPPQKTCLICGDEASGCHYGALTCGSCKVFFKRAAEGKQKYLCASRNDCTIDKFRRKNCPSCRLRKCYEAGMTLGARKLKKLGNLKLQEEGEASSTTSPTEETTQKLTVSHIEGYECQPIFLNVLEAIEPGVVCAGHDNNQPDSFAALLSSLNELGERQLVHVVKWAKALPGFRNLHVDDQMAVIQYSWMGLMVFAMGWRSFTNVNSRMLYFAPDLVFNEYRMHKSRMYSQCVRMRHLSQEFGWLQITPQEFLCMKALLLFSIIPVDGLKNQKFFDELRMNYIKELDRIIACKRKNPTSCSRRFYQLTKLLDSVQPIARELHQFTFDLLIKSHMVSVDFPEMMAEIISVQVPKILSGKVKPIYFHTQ
From the text: The cDNA coding hAR was cloned into the pSG5 expression vector as reported previously [Chang, C. S., J. Kokontis, and S. T. Liao 1988 Molecular cloning of human and rat complementary DNA encoding androgen receptors Science 240:324-326].
The 3416 construct (ARE-Luc), containing four copies of the wild-type slp-HRE2 (5′-TGGTCAgccAGTTCT-3′) was cloned in the NheI site in pTK-TATA-Luc [Verrijdt, G., E. Schoenmakers, A. Haelens, B. Peeters, G. Verhoeven, W. Rombauts, and F. Claessens 2000 Change of specificity mutations in androgen selective enhancers J. Biol. Chem. 275:12298-12305].
For androgen-stimulated transcriptional analysis, 32×10^4 Cos-7 cells were plated in phenol red-free DMEM containing 5% charcoal-stripped serum. After 48 h, the cells were transfected by Superfect (Qiagen) with 0.3 μg of 3416-pTK-TATA-Luc construct, together with 1.5 μg of either pSG5-empty plasmid or pSG5-hAR expressing plasmid. […] When indicated, the synthetic compounds were added alone to the cell medium. […] It was dissolved in 0.001% (final concentration) ethanol. Control cells were treated with the vehicle alone. Lysates were prepared and the luciferase activity was measured using a luciferase assay system (Promega). The results were corrected using CH110-expressed beta-galactosidase activity (Amersham Biosciences) and luciferase activity was expressed as fold induction. Results were obtained from two or three different experiments, each performed in duplicate. Mean and SEM are shown.

[6] = test system: LNCaP-AR cells; assay: SRB in vitro chemosensitivity assay, LNCaP-AR; assay type: cell-based; conditions: for GI50: Homo sapiens, LNCaP/AR; for GI50 / cytotoxic effect (cytostatic / cytocidal), in words: 144 h; for LC50: LNCaP-AR cells, 144 h exposure; for LC50 / cytotoxic effect (cytostatic / cytocidal), in words: up to 20 μM; for cytotoxic effect (cytostatic / cytocidal), in words: LNCaP-AR
Method: as §4, §5, §2, §3, §6

[7] = LNCaP cells, 144 h exposure, up to 20 μM

SMILES | cytotoxic activity, in words [1] | hepato-toxicity, in words [2] | cytotoxic activity, in words [3] | GI50 ([4]; Homo sapiens, LNCaP, 144 h) | LC50 [4, 7] | cytotoxic effect (cytostatic / cytocidal), in words ([4]; LNCaP, 144 h, up to 20 μM) | inhibition of R1881-induced AR transcriptional activation (antagonistic activity), in words [5] | GI50 [6] | LC50 [6] | cytotoxic effect (cytostatic / cytocidal), in words [6] | cytotoxic activity, in words ([1]; listed as (R)-XIII-5) | cytotoxic activity, in words ([3]; listed as (R)-XIII-5) | LC50 ([4]; Homo sapiens, LNCaP, 144 h, read-out: LC50, LNCaP cells, 144 h exposure, up to 20 μM) | LC50 ([4]; read-out: LC50, LNCaP cells, 144 h exposure, up to 20 μM) | agonistic activity on AR transcription, in words [5]
N#Cc1ccc(NC(=O)[C@](O)(Cc2ccc(F)cc2)CS(=O)(=O)c2ccc(F)cc2)cc1C(F)(F)F [(R)-XXIII-4] | negligible cytotoxic activity | did not display toxicity | negligible cytotoxic activity | 7 µM | n.r. | suppress completely the cell growth | A more pronounced inhibition | 7.5 µM | n.r. | suppress completely the cell growth | – | – | – | – | –
N#Cc1ccc(NC(=O)[C@](O)(Cc2ccc(C(F)(F)F)cc2)CS(=O)(=O)c2ccc(F)cc2)cc1C(F)(F)F [(R)-XXIII-5] | – | did not display toxicity | – | 2 µM | – | cell killing activity | A more robust inhibition | 1.9 µM | n.r. | cell killing activity | negligible cytotoxic activity; also recorded: reduced cytotoxic propriety | negligible cytotoxic activity; also recorded: reduced cytotoxic propriety | 16.2 to 20 µM | 16.2 µM | do not exhibit agonistic activity
N#Cc1ccc(NC(=O)[C@@](O)(CS(=O)(=O)c2ccc(F)cc2)c2ccccc2)cc1C(F)(F)F [(R)-XXIII-8] | negligible cytotoxic activity | did not display toxicity | negligible cytotoxic activity | 11.8 µM | n.r. | suppress completely the cell growth | – | 11.6 µM | n.r. | suppress completely the cell growth | – | – | – | – | does not increase the transcriptional activity of AR
